The source of these data is patent US20240043404A1 (AbbVie Inc., priority 2009, published 2024).

In the assay the test system is RS4;11 cells. Put plainly: RS4;11 cell viability assay (CellTiter Glo).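 Further: acute lymphoblastic leukemia line RS4,11, EC50 derived from percentage of viable cells after treatment relative to untreated controls, cell killing taken as a measure of Bcl-2 inhibition.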 In kind it is cell-based, human. The conditions noted are these: Homo sapiens, read-out: RS4.
Setting [1] is: RS4-11, 48 h, 50,000 cells per well, 10% human serum, 48 hours, 11 EC50 Values.
[2] abbreviates: RS4-11, Table 5, direct comparison Z=N with corresponding analogs Z=C, 11 EC50.

Where two headings read alike, the source gives them in different places.

Protocol: The acute lymphoblastic leukemia (ALL) cell line RS4;11 was used as the primary human cell line to assess the cellular activity of Bcl-2 selective agents in vitro and their efficacy in vivo.
Cell cytotoxicity EC50 values were assessed using CellTiter Glo (Promega) according to the manufacturer's recommendations. The EC50 values were determined as a percentage of viable cells following treatment compared to the untreated control cells.

For the compound `O=C(NS(=O)(=O)c1ccc(NCC2CCOCC2)c([N+](=O)[O-])c1)c1ccc(N2CCN(CC3=C(c4ccc(Cl)cc4)CCC4(CCCC4)C3)CC2)cc1Oc1cnc2[nH]ccc2c1` [Example 79, 4-(4-{[8-(4-chlorophenyl)spiro[4.5]dec-7-en-7-yl]methyl}piperazin-1-yl)-N-({3-nitro-4-[(tetrahydro-2H-pyran-4-ylmethyl)amino]phenyl}sulfonyl)-2-(1H-pyrrolo[2,3-b]pyridin-5-yloxy)benzamide], under setting [1], the EC50 was found to be 0.0649 µM.

Take `CC1(C)CCC(CN2CCN(c3ccc(C(=O)NS(=O)(=O)c4ccc(NC5CCN(S(C)(=O)=O)CC5)c([N+](=O)[O-])c4)c(Oc4cnc5[nH]ccc5c4)c3)CC2)=C(c2ccc(Cl)cc2)C1` [Example 80, 4-(4-{[2-(4-chlorophenyl)-4,4-dimethylcyclohex-1-en-1-yl]methyl}piperazin-1-yl)-N-[(4-{[1-(methylsulfonyl)piperidin-4-yl]amino}-3-nitrophenyl)sulfonyl]-2-(1H-pyrrolo[2,3-b]pyridin-5-yloxy)benzamide]: the EC50 under setting [1] was determined as 0.0686 µM. As for `CC1(C)CCC(CN2CCN(c3ccc(C(=O)NS(=O)(=O)c4ccc(NC5CCS(=O)(=O)CC5)c([N+](=O)[O-])c4)c(Oc4cnc5[nH]ccc5c4)c3)CC2)=C(c2ccc(Cl)cc2)C1` [Example 81, 4-(4-{[2-(4-chlorophenyl)-4,4-dimethylcyclohex-1-en-1-yl]methyl}piperazin-1-yl)-N-({4-[(1,1-dioxidotetrahydro-2H-thiopyran-4-yl)amino]-3-nitrophenyl}sulfonyl)-2-(1H-pyrrolo[2,3-b]pyridin-5-yloxy)benzamide], under setting [1], the EC50 stood at 0.0481 µM. As for `CC1(C)CCC(CN2CCN(c3ccc(C(=O)NS(=O)(=O)c4ccc(Cl)c([N+](=O)[O-])c4)c(Oc4cnc5[nH]ccc5c4)c3)CC2)=C(c2ccc(Cl)cc2)C1` [Example 82, N-[(4-chloro-3-nitrophenyl)sulfonyl]-4-(4-{[2-(4-chlorophenyl)-4,4-dimethylcyclohex-1-en-1-yl]methyl}piperazin-1-yl)-2-(1H-pyrrolo[2,3-b]pyridin-5-yloxy)benzamide], under setting [1], the EC50 stood at 0.684 µM. Same read-out and setting: the value for `CC1(C)CCC(CN2CCN(c3ccc(C(=O)NS(=O)(=O)c4ccc(NC5CCN(CC(F)(F)F)CC5)c([N+](=O)[O-])c4)c(Oc4cnc5[nH]ccc5c4)c3)CC2)=C(c2ccc(Cl)cc2)C1` [Example 83, 4-(4-{[2-(4-chlorophenyl)-4,4-dimethylcyclohex-1-en-1-yl]methyl}piperazin-1-yl)-N-[(3-nitro-4-{[1-(2,2,2-trifluoroethyl)piperidin-4-yl]amino}phenyl)sulfonyl]-2-(1H-pyrrolo[2,3-b]pyridin-5-yloxy)benzamide] was 0.197 µM; that for `CC1(C)CCC(CN2CCN(c3ccc(C(=O)NS(=O)(=O)c4cnc(OC5CCN(C6CCOCC6)CC5)c(C#N)c4)c(Oc4cnc5[nH]ccc5c4)c3)CC2)=C(c2ccc(Cl)cc2)C1` [Example 84, 4-(4-{[2-(4-chlorophenyl)-4,4-dimethylcyclohex-1-en-1-yl]methyl}piperazin-1-yl)-N-({5-cyano-6-[(1-tetrahydro-2H-pyran-4-ylpiperidin-4-yl)oxy]pyridin-3-yl}sulfonyl)-2-(1H-pyrrolo[2,3-b]pyridin-5-yloxy)benzamide] was 0.158 µM. The same measure, in the same setting: the value for `CC(C)c1cc(S(=O)(=O)NC(=O)c2ccc(N3CCN(CC4=C(c5ccc(Cl)cc5)CC(C)(C)CC4)CC3)cc2Oc2cnc3[nH]ccc3c2)cnc1OCC1CCOCC1` [Example 85, 4-(4-{[2-(4-chlorophenyl)-4,4-dimethylcyclohex-1-en-1-yl]methyl}piperazin-1-yl)-N-{[5-isopropyl-6-(tetrahydro-2H-pyran-4-ylmethoxy)pyridin-3-yl]sulfonyl}-2-(1H-pyrrolo[2,3-b]pyridin-5-yloxy)benzamide] was 1.95 µM; that for `CC1(C)CCC(CN2CCN(c3ccc(C(=O)NS(=O)(=O)c4cc(F)c(NCC5CCOCC5)c(Cl)c4)c(Oc4cnc5[nH]ccc5c4)c3)CC2)=C(c2ccc(Cl)cc2)C1` [Example 86, N-({3-chloro-5-fluoro-4-[(tetrahydro-2H-pyran-4-ylmethyl)amino]phenyl}sulfonyl)-4-(4-{[2-(4-chlorophenyl)-4,4-dimethylcyclohex-1-en-1-yl]methyl}piperazin-1-yl)-2-(1H-pyrrolo[2,3-b]pyridin-5-yloxy)benzamide] was 1.02 µM; that for `O=C(NS(=O)(=O)c1ccc(NCCCN2CCOCC2)c([N+](=O)[O-])c1)c1ccc(N2CCN(Cc3ccccc3-c3ccc(Cl)cc3)CC2)cc1Oc1ccc2[nH]ccc2c1` [Example 88, 4-{4-[(4′-chloro-1,1′-biphenyl-2-yl)methyl]piperazin-1-yl}-2-(1H-indol-5-yloxy)-N-({4-[(3-morpholin-4-ylpropyl)amino]-3-nitrophenyl}sulfonyl)benzamide] was 0.447 µM. Regarding `CN1CCC(Nc2ccc(S(=O)(=O)NC(=O)c3ccc(N4CCN(CC5=C(c6ccc(Cl)cc6)CC(C)(C)CC5)CC4)cc3Oc3ccc4[nH]ccc4c3)cc2[N+](=O)[O-])CC1` [Example 90, 4-(4-{[2-(4-chlorophenyl)-4,4-dimethylcyclohex-1-en-1-yl]methyl}piperazin-1-yl)-2-(1H-indol-5-yloxy)-N-({4-[(1-methylpiperidin-4-yl)amino]-3-nitrophenyl}sulfonyl)benzamide], the EC50 was found to be 0.063 µM under setting [1] and 0.063 µM under setting [2]. Turning to `CC1(C)CCC(CN2CCN(c3ccc(C(=O)NS(=O)(=O)c4ccc(OCC5COCCO5)c([N+](=O)[O-])c4)c(Oc4ccc5[nH]ccc5c4)c3)CC2)=C(c2ccc(Cl)cc2)C1` (stereo not shown) [Example 92, 4-(4-{[2-(4-chlorophenyl)-4,4-dimethylcyclohex-1-en-1-yl]methyl}piperazin-1-yl)-N-{[4-(1,4-dioxan-2-ylmethoxy)-3-nitrophenyl]sulfonyl}-2-(1H-indol-5-yloxy)benzamide], the EC50 was determined as 0.0809 µM under setting [1] and 0.081 µM (RS4-11, Table 4, selected compounds in U.S. Pat. Application No. 12/631404, 11 EC50). In the case of `COCCNc1ccc(S(=O)(=O)NC(=O)c2ccc(N3CCN(CC4=C(c5ccc(Cl)cc5)CC(C)(C)CC4)CC3)cc2Oc2ccc3[nH]ccc3c2)cc1S(=O)(=O)C(F)(F)F` [Example 93, 4-(4-{[2-(4-chlorophenyl)-4,4-dimethylcyclohex-1-en-1-yl]methyl}piperazin-1-yl)-2-(1H-indol-5-yloxy)-N-({4-[(2-methoxyethyl)amino]-3-[(trifluoromethyl)sulfonyl]phenyl}sulfonyl)benzamide], the EC50 under setting [1] is over 5 µM and the EC50 under setting [2] is over 5 µM. With `CC1(C)CCC(CN2CCN(c3ccc(C(=O)NS(=O)(=O)c4ccc(NCC5CCOCC5)c(S(=O)(=O)C(F)(F)F)c4)c(Oc4ccc5[nH]ccc5c4)c3)CC2)=C(c2ccc(Cl)cc2)C1` [Example 94, 4-(4-{[2-(4-chlorophenyl)-4,4-dimethylcyclohex-1-en-1-yl]methyl}piperazin-1-yl)-2-(1H-indol-5-yloxy)-N-({4-[(tetrahydro-2H-pyran-4-ylmethyl)amino]-3-[(trifluoromethyl)sulfonyl]phenyl}sulfonyl)benzamide], the EC50 under setting [1] is 1.69 µM and the EC50 under setting [2] was found to be 1.69 µM. In the case of `CC1(C)CCC(CN2CCN(c3ccc(C(=O)NS(=O)(=O)c4ccc(NC5CCN(C(CF)CF)CC5)c([N+](=O)[O-])c4)c(Oc4cnc5[nH]ccc5c4)c3)CC2)=C(c2ccc(Cl)cc2)C1` [Example 95, 4-(4-{[2-(4-chlorophenyl)-4,4-dimethylcyclohex-1-en-1-yl]methyl}piperazin-1-yl)-N-{[4-({1-[2-fluoro-1-(fluoromethyl)ethyl]piperidin-4-yl}amino)-3-nitrophenyl]sulfonyl}-2-(1H-pyrrolo[2,3-b]pyridin-5-yloxy)benzamide], under setting [1], the EC50 turned out to be 0.0295 µM.

Consider `CC1(C)CCC(CN2CCN(c3ccc(C(=O)NS(=O)(=O)c4cnc(OCC5(F)CCOCC5)c(Cl)c4)c(Oc4cnc5[nH]ccc5c4)c3)CC2)=C(c2ccc(Cl)cc2)C1` [Example 96, N-({5-chloro-6-[(4-fluorotetrahydro-2H-pyran-4-yl)methoxy]pyridin-3-yl}sulfonyl)-4-(4-{[2-(4-chlorophenyl)-4,4-dimethylcyclohex-1-en-1-yl]methyl}piperazin-1-yl)-2-(1H-pyrrolo[2,3-b]pyridin-5-yloxy)benzamide], for which, under setting [1], the EC50 is 0.0436 µM.

As for `CC1(C)CCC(CN2CCN(c3ccc(C(=O)NS(=O)(=O)c4ccc(NC5CCN(CC(F)F)CC5)c([N+](=O)[O-])c4)c(Oc4cnc5[nH]ccc5c4)c3)CC2)=C(c2ccc(Cl)cc2)C1` [Example 97, 4-(4-{[2-(4-chlorophenyl)-4,4-dimethylcyclohex-1-en-1-yl]methyl}piperazin-1-yl)-N-[(4-{[1-(2,2-difluoroethyl)piperidin-4-yl]amino}-3-nitrophenyl)sulfonyl]-2-(1H-pyrrolo[2,3-b]pyridin-5-yloxy)benzamide], the EC50 under setting [1] stood at 0.0556 µM. For `CC1(C)CCC(CN2CCN(c3ccc(C(=O)NS(=O)(=O)c4ccc(NC5CCN(C6CC6)CC5)c([N+](=O)[O-])c4)c(Oc4cnc5[nH]ccc5c4)c3)CC2)=C(c2ccc(Cl)cc2)C1` [Example 98, 4-(4-{[2-(4-chlorophenyl)-4,4-dimethylcyclohex-1-en-1-yl]methyl}piperazin-1-yl)-N-({4-[(1-cyclopropylpiperidin-4-yl)amino]-3-nitrophenyl}sulfonyl)-2-(1H-pyrrolo[2,3-b]pyridin-5-yloxy)benzamide], the EC50 under setting [1] came to 0.0229 µM. With `CC1(C)CCC(CN2CCN(c3ccc(C(=O)NS(=O)(=O)c4ccc(NCC5(N6CCOCC6)CCCCC5)c([N+](=O)[O-])c4)c(Oc4cnc5[nH]ccc5c4)c3)CC2)=C(c2ccc(Cl)cc2)C1` [Example 99, 4-(4-{[2-(4-chlorophenyl)-4,4-dimethylcyclohex-1-en-1-yl]methyl}piperazin-1-yl)-N-[(4-{[(1-morpholin-4-ylcyclohexyl)methyl]amino}-3-nitrophenyl)sulfonyl]-2-(1H-pyrrolo[2,3-b]pyridin-5-yloxy)benzamide], the EC50 under setting [1] stood at 1.39 µM.
